From patent US20100227921A1, “AMINO ACID AND PEPTIDE CARBAMATE PRODRUGS OF […] USES THEREOF” (SHIRE LLC, priority 2009, published 2010)
“And” between values parts separate entries of the source, which are not always exact repeats. Equal entries are not always repeated. Marks after values point to notes of the source that are not given here.

Columns and labels:
[1] = tested on: guinea pig small intestine myenteric plexus longitudinal muscle; test: Electrical field stimulation response of isolated guinea pig small intestine smooth muscle (ex vivo); settings: Cavia porcellus; isolated guinea pig ileum, EFS 14 Hz, non-cumulative 10 nM-30 μM; read-out: approximate EC50, effect on electrical field stimulation response
Description: Strips of guinea pig small intestine myenteric plexus longitudinal muscle and mounted between platinum ring electrodes. The tissue was stretched to a steady tension of about 1 g and changes in force production were recorded using sensitive transducers.
The optimal voltage for stimulation was determined while the tissue was paced with electrical field stimulation (EFS) at 14 Hz, with a pulse width of 0.5 msec (Trains of pulses for 20 seconds, every 50 seconds).
EFS at optimal voltage continued throughout the protocol (stable responses=“baseline measurement of EFS”).
The 3 test conditions employed were as follows:
(1) Vehicle (deionised water, added at equivalent volume additions to test articles), (2) Tapentadol at 6 concentrations (10 nM, 100 nM, 1 μM, 3 μM, 10 μM & 30 μM) (3) Tapentadol valine carbamate at 6 concentrations (10 nM, 100 nM, 1 μM, 3 μM, 10 μM, & 30 μM).
Following 10 minutes of baseline EFS, first addition of test article or vehicle (deionized water) was performed.
Test concentrations were added in a non-cumulative manner with PSS washes between each addition. Next, TTX (Na+ channel blocker) was added to confirm EFS responses were elicited via nerve stimulation. EFS was then stopped.

[2] = Comparative bioavailability after oral administration to rats (plasma LC-MS-MS); type: in vivo
Description: Test substances, i.e., tapentadol or tapentadol valine carbamate were administered by oral gavage to groups of male Sprague Dawley rats.
Blood samples were taken at various times after administration and submitted to analysis for the parent drug and pro-drug using a validated LC-MS-MS assay. Pharmacokinetic parameters derived from the plasma analytical data were determined using Win Nonlin.

[3] = male rat, oral tapentadol 10 mg free base equiv/kg, individual animals 1-5 (5 outlier)

CC[C@@H](c1cccc(O)c1)[C@@H](C)CN(C)C (racemic) [Tapentadol, (−)-(1R,2R)-3-(3-dimethyl-amino-1-ethyl-2-methyl-propyl)-phenol]
EC50 [1]: ~200 nM
Plasma concentration of tapentadol ([2]; male rat, oral tapentadol 10 mg free base equiv/kg, 0.5 h, individual animals 1-5 (5 outlier)): 003.53 ng/mL and 001.60 ng/mL and 2.33 ng/mL and 003.48 ng/mL and 70.5 ng/mL
Plasma concentration of tapentadol ([2]; male rat, oral tapentadol 10 mg free base equiv/kg, 1 h, individual animals 1-5 (5 outlier)): 3.98 ng/mL and 2.32 ng/mL and 5.21 ng/mL and 5.87 ng/mL and 52.6 ng/mL
Plasma concentration of tapentadol ([2]; male rat, oral tapentadol 10 mg free base equiv/kg, 2 h, individual animals 1-5 (5 outlier)): 2.70 ng/mL and 2.28 ng/mL and 1.72 ng/mL and 3.06 ng/mL and 22.7 ng/mL
Plasma concentration of tapentadol ([2]; male rat, oral tapentadol 10 mg free base equiv/kg, 3 h, individual animals 1-5 (5 outlier)): 1.75 ng/mL and 1.65 ng/mL and 1.68 ng/mL and 2.20 ng/mL and 10.9 ng/mL
Plasma concentration of tapentadol ([2]; male rat, oral tapentadol 10 mg free base equiv/kg, 4 h, individual animals 1-5 (5 outlier)): 1.65 ng/mL and 3.61 ng/mL and 1.67 ng/mL and 2.62 ng/mL and 9.10 ng/mL
Plasma concentration of tapentadol ([2]; male rat, oral tapentadol 10 mg free base equiv/kg, 6 h, individual animals 1-5 (5 outlier)): 1.38 ng/mL and 1.19 ng/mL and 1.25 ng/mL and 2.00 ng/mL and 5.77 ng/mL
Plasma concentration of tapentadol ([2]; male rat, oral tapentadol 10 mg free base equiv/kg, 8 h, individual animals 1-5 (5 outlier)): 0.991 ng/mL and 1.08 ng/mL and 0.684 ng/mL and 1.27 ng/mL and 5.15 ng/mL
Plasma concentration of tapentadol ([2]; male rat, oral tapentadol 10 mg free base equiv/kg, 12 h, individual animals 1-5 (5 outlier)): BLQ (BLQ Values less than level of quantification (LOQ, <0.5 ng/mL))
Plasma concentration of tapentadol ([2]; male rat, oral tapentadol 10 mg free base equiv/kg, 24 h, individual animals 1-5): BLQ (BLQ Values less than level of quantification (LOQ, <0.5 ng/mL))
AUCt of tapentadol [2, 3]: 15.4 ng·h/mL and 15.3 ng·h/mL and 14.2 ng·h/mL and 20.6 ng·h/mL and 151 ng·h/mL
Cmax of tapentadol [2, 3]: 3.98 ng/mL and 3.61 ng/mL and 5.21 ng/mL and 5.87 ng/mL and 70.5 ng/mL
T>50%Cmax of tapentadol [2, 3]: 1.5 h (2×) and 1.0 h and 0.5 h
Tmax of tapentadol [2, 3]: 4 h
t½ of tapentadol ([2]; male rat, oral tapentadol 10 mg free base equiv/kg, individual animals 1-5 (5 outlier; animals 1 and 4 estimates)): 6.13^c h and 2.30 h and 3.11 h and 3.83^c h and 2.59 h
AUC of tapentadol ([2]; male rat, oral tapentadol 10 mg free base equiv/kg, individual animals 1-5 (5 outlier; animals 1 and 4 estimates, extrapolated portion >25%)): 24.6^c ng · h/mL and 18.4 ng · h/mL and 17.4 ng · h/mL and 27.8^c ng · h/mL and 156 ng · h/mL
T>50%Cmax of tapentadol ([2]; male rat, oral tapentadol 10 mg free base equiv/kg, median, animal 5 excluded): 1.5^a h
Plasma concentration of tapentadol ([2]; male rat, oral tapentadol valine carbamate 10 mg tapentadol free base equiv/kg, 0.5 h, individual animals 6-10): BLQ (BLQ Values less than LOQ (<0.5 ng/mL))
Plasma concentration of tapentadol ([2]; male rat, oral tapentadol valine carbamate 10 mg tapentadol free base equiv/kg, 1 h, individual animals 6-10): BLQ (BLQ Values less than LOQ (<0.5 ng/mL))
Plasma concentration of tapentadol ([2]; male rat, oral tapentadol valine carbamate 10 mg tapentadol free base equiv/kg, 2 h, individual animals 6-10): BLQ (BLQ Values less than LOQ (<0.5 ng/mL))
Plasma concentration of tapentadol ([2]; male rat, oral tapentadol valine carbamate 10 mg tapentadol free base equiv/kg, 3 h, individual animals 6-10): BLQ (BLQ Values less than LOQ (<0.5 ng/mL))
Plasma concentration of tapentadol ([2]; male rat, oral tapentadol valine carbamate 10 mg tapentadol free base equiv/kg, 4 h, individual animals 6-10): BLQ (BLQ Values less than LOQ (<0.5 ng/mL))
Plasma concentration of tapentadol ([2]; male rat, oral tapentadol valine carbamate 10 mg tapentadol free base equiv/kg, 12 h, individual animals 6-10): BLQ (BLQ Values less than LOQ (<0.5 ng/mL))
Plasma concentration of tapentadol ([2]; male rat, oral tapentadol valine carbamate 10 mg tapentadol free base equiv/kg, 24 h, individual animals 6-10): BLQ (BLQ Values less than LOQ (<0.5 ng/mL))
T>50%Cmax of tapentadol ([2]; male rat, oral tapentadol valine carbamate 10 mg tapentadol free base equiv/kg, individual animals 6-10): 2 h
T>50%Cmax of tapentadol ([2]; male rat, oral tapentadol valine carbamate 10 mg tapentadol free base equiv/kg, median): 2^a h
concentration at 0.5 h ([2]; male, Sprague Dawley, rat, plasma, po, 10 mg free base equiv/kg, oral tapentadol 10 mg free base equiv/kg, 0.5 h, mean, animal 5 excluded, read-out: Plasma concentration of tapentadol): 2.73 ng/mL
concentration at 1 h ([2]; male, Sprague Dawley, rat, plasma, po, 10 mg free base equiv/kg, oral tapentadol 10 mg free base equiv/kg, 1 h, mean, animal 5 excluded, read-out: Plasma concentration of tapentadol): 4.34 ng/mL
concentration at 2 h ([2]; male, Sprague Dawley, rat, plasma, po, 10 mg free base equiv/kg, oral tapentadol 10 mg free base equiv/kg, 2 h, mean, animal 5 excluded, read-out: Plasma concentration of tapentadol): 2.44 ng/mL
concentration at 3 h ([2]; male, Sprague Dawley, rat, plasma, po, 10 mg free base equiv/kg, oral tapentadol 10 mg free base equiv/kg, 3 h, mean, animal 5 excluded, read-out: Plasma concentration of tapentadol): 1.82 ng/mL
concentration at 4 h ([2]; male, Sprague Dawley, rat, plasma, po, 10 mg free base equiv/kg, oral tapentadol 10 mg free base equiv/kg, 4 h, mean, animal 5 excluded, read-out: Plasma concentration of tapentadol): 2.39 ng/mL
concentration at 6 h ([2]; male, Sprague Dawley, rat, plasma, po, 10 mg free base equiv/kg, oral tapentadol 10 mg free base equiv/kg, 6 h, mean, animal 5 excluded, read-out: Plasma concentration of tapentadol): 1.45 ng/mL
concentration at 8 h ([2]; male, Sprague Dawley, rat, plasma, po, 10 mg free base equiv/kg, oral tapentadol 10 mg free base equiv/kg, 8 h, mean, animal 5 excluded, read-out: Plasma concentration of tapentadol): 1.01 ng/mL
concentration at 12 h ([2]; male, Sprague Dawley, rat, plasma, po, 10 mg free base equiv/kg, oral tapentadol 10 mg free base equiv/kg, 12 h, individual animals 1-5 (5 outlier), read-out: Plasma concentration of tapentadol): 1.09 ng/mL
